According to PubChem BioAssay (NCI):
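Where inhibition never reached the appropriate level, the endpoint shown equals the highest concentration tested. Otherwise, values were interpolated linearly from a five-concentration, 48-hour dose response in 96-well plates. TGI: total growth inhibition.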

Assays:
Assay in all cases: NCI tumour cell line growth inhibition, 48 h
M14 melanoma = test system: M14 melanoma
UACC-257 melanoma = test system: UACC-257 melanoma
HCT-116 colon = test system: HCT-116 colon
HOP-92 NSCLC = test system: HOP-92 NSCLC
OVCAR-3 ovarian = test system: OVCAR-3 ovarian
U251 CNS = test system: U251 CNS
A498 renal = test system: A498 renal
SK-OV-3 ovarian = test system: SK-OV-3 ovarian
HT29 colon = test system: HT29 colon
UO-31 renal = test system: UO-31 renal
SF-268 CNS = test system: SF-268 CNS
SK-MEL-2 melanoma = test system: SK-MEL-2 melanoma
SW-620 colon = test system: SW-620 colon
MDA-MB-231 breast = test system: MDA-MB-231 breast
NCI-H522 lung = test system: NCI-H522 lung
NCI-H460 lung = test system: NCI-H460 lung
SF-539 CNS = test system: SF-539 CNS
RPMI-8226 leukemia = test system: RPMI-8226 leukemia
MCF7 breast = test system: MCF7 breast
T-47D breast = test system: T-47D breast
786-0 renal = test system: 786-0 renal
MDA-MB-435 = test system: MDA-MB-435
RXF 393 renal = test system: RXF 393 renal
A549 NSCLC = test system: A549 NSCLC
DU-145 prostate = test system: DU-145 prostate
SK-MEL-5 melanoma = test system: SK-MEL-5 melanoma
NCI-H226 lung = test system: NCI-H226 lung
SF-295 CNS = test system: SF-295 CNS
IGROV1 ovarian = test system: IGROV1 ovarian
K-562 leukemia = test system: K-562 leukemia
SNB-19 CNS = test system: SNB-19 CNS
LOX IMVI melanoma = test system: LOX IMVI melanoma
MALME-3M melanoma = test system: MALME-3M melanoma
SN12C renal = test system: SN12C renal
SNB-75 CNS = test system: SNB-75 CNS
OVCAR-5 ovarian = test system: OVCAR-5 ovarian
OVCAR-4 ovarian = test system: OVCAR-4 ovarian
CAKI-1 renal = test system: CAKI-1 renal
PC-3 prostate = test system: PC-3 prostate
UACC-62 melanoma = test system: UACC-62 melanoma
KM12 colon = test system: KM12 colon
MOLT-4 leukemia = test system: MOLT-4 leukemia
HS 578T breast = test system: HS 578T breast
COLO 205 colon = test system: COLO 205 colon
TK-10 renal = test system: TK-10 renal
NCI/ADR-RES ovarian = test system: NCI/ADR-RES ovarian
HOP-62 NSCLC = test system: HOP-62 NSCLC
EKVX NSCLC = test system: EKVX NSCLC
HL-60(TB) leukemia = test system: HL-60(TB) leukemia
NCI-H23 lung = test system: NCI-H23 lung
CCRF-CEM leukemia = test system: CCRF-CEM leukemia
SR leukemia = test system: SR leukemia
SK-MEL-28 melanoma = test system: SK-MEL-28 melanoma
HCT-15 colon = test system: HCT-15 colon
OVCAR-8 ovarian = test system: OVCAR-8 ovarian
BT-549 breast = test system: BT-549 breast
ACHN renal = test system: ACHN renal
HCC-2998 colon = test system: HCC-2998 colon

Question: Which TGI (M14 melanoma) does the source give for CCCCCCN1C(=O)CC(=O)N(CCCCCC)S1(=O)=O here?
Answer: > 100 µM

Question: And the TGI (UACC-257 melanoma)?
Answer: > 100 µM

Question: And the TGI (HCT-116 colon)?
Answer: > 100 µM

Question: And the TGI (HOP-92 NSCLC)?
Answer: 25.6 µM

Question: And the TGI (OVCAR-3 ovarian)?
Answer: 52.1 µM

Question: What about the TGI (U251 CNS) of the same molecule?
Answer: 33.1 µM

Question: What about the TGI (A498 renal) of the same molecule?
Answer: 27.8 µM

Question: What about the TGI (SK-OV-3 ovarian) of the same molecule?
Answer: 51.5 µM

Question: And the TGI (HT29 colon)?
Answer: 46.8 µM

Question: What about the TGI (UO-31 renal) of the same molecule?
Answer: 3.46 µM

Question: And the TGI (SF-268 CNS)?
Answer: 36.9 µM

Question: And the TGI (SK-MEL-2 melanoma)?
Answer: 28.5 µM

Question: And the TGI (SW-620 colon)?
Answer: 41.9 µM

Question: What about the TGI (MDA-MB-231 breast) of the same molecule?
Answer: 33.2 µM

Question: And the TGI (NCI-H522 lung)?
Answer: 27.4 µM

Question: What about the TGI (NCI-H460 lung) of the same molecule?
Answer: > 100 µM

Question: What about the TGI (SF-539 CNS) of the same molecule?
Answer: 41.9 µM

Question: What about the TGI (RPMI-8226 leukemia) of the same molecule?
Answer: 47.2 µM

Question: What about the TGI (MCF7 breast) of the same molecule?
Answer: > 100 µM

Question: And the TGI (T-47D breast)?
Answer: > 100 µM

Question: And the TGI (786-0 renal)?
Answer: 35.8 µM

Question: And the TGI (MDA-MB-435)?
Answer: 53.5 µM

Question: And the TGI (RXF 393 renal)?
Answer: 34.1 µM

Question: What about the TGI (A549 NSCLC) of the same molecule?
Answer: > 100 µM

Question: And the TGI (DU-145 prostate)?
Answer: > 100 µM

Question: And the TGI (SK-MEL-5 melanoma)?
Answer: 44.2 µM

Question: And the TGI (NCI-H226 lung)?
Answer: > 100 µM

Question: What about the TGI (SF-295 CNS) of the same molecule?
Answer: 35.9 µM

Question: What about the TGI (IGROV1 ovarian) of the same molecule?
Answer: 25.9 µM

Question: And the TGI (K-562 leukemia)?
Answer: > 100 µM

Question: What about the TGI (SNB-19 CNS) of the same molecule?
Answer: > 100 µM

Question: And the TGI (LOX IMVI melanoma)?
Answer: 36 µM

Question: What about the TGI (MALME-3M melanoma) of the same molecule?
Answer: 72.8 µM

Question: What about the TGI (SN12C renal) of the same molecule?
Answer: 37.1 µM

Question: And the TGI (SNB-75 CNS)?
Answer: 32.7 µM

Question: And the TGI (OVCAR-5 ovarian)?
Answer: 41.1 µM

Question: And the TGI (OVCAR-4 ovarian)?
Answer: 41 µM

Question: And the TGI (CAKI-1 renal)?
Answer: 50.7 µM

Question: And the TGI (PC-3 prostate)?
Answer: 60 µM

Question: What about the TGI (UACC-62 melanoma) of the same molecule?
Answer: 34.3 µM

Question: And the TGI (KM12 colon)?
Answer: > 100 µM

Question: What about the TGI (MOLT-4 leukemia) of the same molecule?
Answer: 51.6 µM

Question: What about the TGI (HS 578T breast) of the same molecule?
Answer: 45.9 µM

Question: And the TGI (COLO 205 colon)?
Answer: 34.6 µM

Question: And the TGI (TK-10 renal)?
Answer: 41.6 µM

Question: And the TGI (NCI/ADR-RES ovarian)?
Answer: 49.5 µM

Question: What about the TGI (HOP-62 NSCLC) of the same molecule?
Answer: 35.9 µM

Question: What about the TGI (EKVX NSCLC) of the same molecule?
Answer: 41 µM

Question: And the TGI (HL-60(TB) leukemia)?
Answer: 48.9 µM

Question: What about the TGI (NCI-H23 lung) of the same molecule?
Answer: 75.2 µM

Question: And the TGI (CCRF-CEM leukemia)?
Answer: 40.9 µM

Question: What about the TGI (SR leukemia) of the same molecule?
Answer: 61 µM

Question: O=[N+]([O-])/C(C(Cl)=C(Cl)Cl)=C1\NCCS1 was tested. Which TGI (M14 melanoma) did it give?
Answer: > 100 µM

Question: What about the TGI (UACC-257 melanoma) of the same molecule?
Answer: > 100 µM

Question: And the TGI (HCT-116 colon)?
Answer: > 100 µM

Question: What about the TGI (OVCAR-3 ovarian) of the same molecule?
Answer: > 100 µM

Question: And the TGI (SK-MEL-28 melanoma)?
Answer: > 100 µM

Question: What about the TGI (U251 CNS) of the same molecule?
Answer: > 100 µM

Question: What about the TGI (HCT-15 colon) of the same molecule?
Answer: > 100 µM

Question: What about the TGI (A498 renal) of the same molecule?
Answer: > 100 µM

Question: What about the TGI (SK-OV-3 ovarian) of the same molecule?
Answer: > 100 µM

Question: What about the TGI (HT29 colon) of the same molecule?
Answer: > 100 µM

Question: And the TGI (UO-31 renal)?
Answer: > 100 µM

Question: What about the TGI (SF-268 CNS) of the same molecule?
Answer: > 100 µM

Question: And the TGI (SW-620 colon)?
Answer: > 100 µM

Question: And the TGI (MDA-MB-231 breast)?
Answer: > 100 µM

Question: And the TGI (OVCAR-8 ovarian)?
Answer: > 100 µM

Question: And the TGI (NCI-H460 lung)?
Answer: > 100 µM

Question: And the TGI (SF-539 CNS)?
Answer: > 100 µM

Question: And the TGI (RPMI-8226 leukemia)?
Answer: 54.5 µM

Question: And the TGI (MCF7 breast)?
Answer: > 100 µM

Question: What about the TGI (786-0 renal) of the same molecule?
Answer: > 100 µM

Question: And the TGI (MDA-MB-435)?
Answer: > 100 µM

Question: What about the TGI (RXF 393 renal) of the same molecule?
Answer: 58.8 µM

Question: What about the TGI (A549 NSCLC) of the same molecule?
Answer: > 100 µM

Question: What about the TGI (DU-145 prostate) of the same molecule?
Answer: > 100 µM

Question: And the TGI (SK-MEL-5 melanoma)?
Answer: > 100 µM

Question: What about the TGI (NCI-H226 lung) of the same molecule?
Answer: > 100 µM

Question: What about the TGI (SF-295 CNS) of the same molecule?
Answer: > 100 µM

Question: And the TGI (IGROV1 ovarian)?
Answer: > 100 µM

Question: What about the TGI (K-562 leukemia) of the same molecule?
Answer: 41.4 µM

Question: What about the TGI (SNB-19 CNS) of the same molecule?
Answer: > 100 µM

Question: What about the TGI (LOX IMVI melanoma) of the same molecule?
Answer: 44.1 µM

Question: What about the TGI (BT-549 breast) of the same molecule?
Answer: > 100 µM

Question: What about the TGI (MALME-3M melanoma) of the same molecule?
Answer: 92.6 µM

Question: And the TGI (SN12C renal)?
Answer: > 100 µM

Question: And the TGI (OVCAR-5 ovarian)?
Answer: > 100 µM

Question: What about the TGI (OVCAR-4 ovarian) of the same molecule?
Answer: > 100 µM

Question: What about the TGI (CAKI-1 renal) of the same molecule?
Answer: > 100 µM

Question: And the TGI (PC-3 prostate)?
Answer: > 100 µM

Question: What about the TGI (UACC-62 melanoma) of the same molecule?
Answer: > 100 µM

Question: What about the TGI (ACHN renal) of the same molecule?
Answer: > 100 µM

Question: What about the TGI (KM12 colon) of the same molecule?
Answer: > 100 µM

Question: What about the TGI (MOLT-4 leukemia) of the same molecule?
Answer: 62.4 µM

Question: And the TGI (HS 578T breast)?
Answer: > 100 µM

Question: And the TGI (COLO 205 colon)?
Answer: > 100 µM

Question: What about the TGI (TK-10 renal) of the same molecule?
Answer: > 100 µM

Question: What about the TGI (NCI/ADR-RES ovarian) of the same molecule?
Answer: > 100 µM

Question: And the TGI (HCC-2998 colon)?
Answer: > 100 µM

Question: What about the TGI (HOP-62 NSCLC) of the same molecule?
Answer: > 100 µM

Question: And the TGI (EKVX NSCLC)?
Answer: > 100 µM

Question: And the TGI (HL-60(TB) leukemia)?
Answer: 48.3 µM

Question: And the TGI (NCI-H23 lung)?
Answer: > 100 µM

Question: What about the TGI (CCRF-CEM leukemia) of the same molecule?
Answer: 46.2 µM

Question: What about the TGI (SR leukemia) of the same molecule?
Answer: 46.4 µM
